Patent publication US8759373B2, “Cyanoisoquinoline compounds and methods of use thereof” (Fibrogen, Inc., priority 2006, dated 2014)

System: mouse erythropoietin
Assay: Plasma erythropoietin levels in mice after IV dosing (mouse erythropoietin QUANTIKINE ELISA)
Type: in vivo, Male Swiss Webster mice
Conditions: blood 4 hours post IV dosing, same conditions and concentration
Method: Compounds were tested for activity using the following assay. Compounds were dissolved in aqueous solution containing twice as much sodium hydroxide, mole-for-mole, as compound and dextrose as tonicity agent. Male Swiss Webster mice were dosed by tail vein injection with the compound, and blood samples were collected into EDTA and heparin 4 hours post IV dosing. The samples were analyzed using a mouse erythropoietin QUANTIKINE ELISA kit (R&D Systems Inc., Minneapolis Minn.) according to the manufacturer's instructions. […] Table 1 below illustrates the fold difference (i.e., the level of improvement) between erythropoietin levels achieved by compounds of the invention compared to erythropoietin levels achieved by compounds having the same structure except the cyano group at the C-1 position is replaced as shown below, tested under the same conditions and at the same concentration.

[1] = comparator: same structure with —Cl in place of cyano at C-1, tail vein injection
[2] = comparator: same structure with —CH3 in place of cyano at C-1, tail vein injection
[3] = comparator: same structure with —H in place of cyano at C-1, tail vein injection

For `N#Cc1nc(C(=O)NCC(=O)O)c(O)c2ccccc12` [Example 1, [(1-Cyano-4-hydroxy-isoquinoline-3-carbonyl)-amino]-acetic acid], which “Fold Difference (erythropoietin levels vs. comparative compound)” value (shortened to “Fold Difference”) [1] is on record?
The value was 4.7×.

For `N#Cc1nc(C(=O)NCC(=O)O)c(O)c2ccc(Oc3ccccc3)cc12` [Example 3, [(1-Cyano-4-hydroxy-7-phenoxy-isoquinoline-3-carbonyl)-amino]-acetic acid], which “Fold Difference” value [2] is on record?
The value was 2.5×.

With `N#Cc1nc(C(=O)NCC(=O)O)c(O)c2ccc(Oc3ccc(F)cc3)cc12` [Example 6, {[1-Cyano-7-(4-fluoro-phenoxy)-4-hydroxy-isoquinoline-3-carbonyl]-amino}-acetic acid] as the molecule, how does the “Fold Difference” value [1] read?
The value was 31×.

For `N#Cc1nc(C(=O)NCC(=O)O)c(O)c2cccc(Oc3ccccc3)c12` [Example 9, [(1-Cyano-4-hydroxy-8-phenoxy-isoquinoline-3-carbonyl)-amino]-acetic acid], which “Fold Difference” value [2] is on record?
The value was 2.4×.

`N#Cc1nc(C(=O)NCC(=O)O)c(O)c2cc(Oc3ccccc3)ccc12` [Example 12, [(1-Cyano-4-hydroxy-6-phenoxy-isoquinoline-3-carbonyl)-amino]-acetic acid] was tested. Which “Fold Difference” value (comparator: same structure with —Br in place of cyano at C-1, tail vein injection) did it give?
Its value is 362×.

And the “Fold Difference” value [1]?
Its value is 449×.

With `COc1cccc(Oc2cccc3c(O)c(C(=O)NCC(=O)O)nc(C#N)c23)c1` [Example 20, {[1-Cyano-4-hydroxy-8-(3-methoxy-phenoxy)-isoquinoline-3-carbonyl]-amino}-acetic acid] as the molecule, how does the “Fold Difference” value [3] read?
The value was 23×.

Which “Fold Difference” value [3] does the source give for `N#Cc1nc(C(=O)NCC(=O)O)c(O)c2ccc(Cc3ccccc3)cc12` [Example 22, [(7-Benzyl-1-cyano-4-hydroxy-isoquinoline-3-carbonyl)-amino]-acetic acid] here?
The value was 26×.

Which “Fold Difference” value [3] does the source give for `N#Cc1nc(C(=O)NCC(=O)O)c(O)c2c(Oc3ccc(F)cc3)cccc12` [Example 23, {[1-Cyano-5-(4-fluoro-phenoxy)-4-hydroxy-isoquinoline-3-carbonyl]-amino}-acetic acid] here?
Its value is 277×.

For `Cc1nc2ccc(Oc3ccc4c(C#N)nc(C(=O)NCC(=O)O)c(O)c4c3)cc2s1` [Example 39, {[1-Cyano-4-hydroxy-6-(2-methyl-benzothiazol-6-yloxy)-isoquinoline-3-carbonyl]-amino}-acetic acid], which “Fold Difference” value [2] is on record?
Its value is 178×.

With `CN(C)c1nc2cc(Oc3ccc4c(C#N)nc(C(=O)NCC(=O)O)c(O)c4c3)ccc2o1` [Example 40, {[1-Cyano-6-(2-dimethylamino-benzooxazol-5-yloxy)-4-hydroxy-isoquinoline-3-carbonyl]-amino}-acetic acid] as the molecule, how does the “Fold Difference” value [3] read?
Its value is 81×.
